This experiment concerns nude mice, HT29 intrarenal xenograft, tumor weight T/C. Description: NCI In Vivo Anticancer Drug Screen. Data for tumor model HT29;CX-1 Human Adenocarcinoma (MER+) (intrarenal inoculation) in NU/NU Swiss (nude) mice. Conditions: endpoint: mean tumor weight change, higher = larger tumour. In short, it runs like this: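 Endpoint measured as tumor size or survival; ratio reported is treated group over vehicle controls.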

Where [1] appears, read: dose: 100.0 mg/kg/injection, schedule: Q01DX010 (sc), vehicle: saline.
The mark [2] stands for this setting: dose: 200.0 mg/kg/injection, schedule: Q01DX010 (sc), vehicle: saline.
Setting [3] is: dose: 75.0 mg/kg/injection, schedule: Q04DX004 (sc), vehicle: Klucel (hydroxypropylcellulose) (HPC).
[4] abbreviates: dose: 150.0 mg/kg/injection, schedule: Q04DX004 (sc), vehicle: Klucel (hydroxypropylcellulose) (HPC).
Setting [5] is: dose: 300.0 mg/kg/injection, schedule: Q04DX004 (sc), vehicle: Klucel (hydroxypropylcellulose) (HPC).
Where [6] appears, read: dose: 50.0 mg/kg/injection, schedule: Q01DX010 (sc), vehicle: saline.

T/C data for 22 molecules are collected here from PubChem BioAssay AID206 (DTP/NCI, 2004).

The structures appear in SMILES notation. Results filed as inconclusive are left out.

`Nc1ncnc2c1ncn2C1OC(COP(=O)(O)O)C(O)C1O` (configuration not stated): the T/C runs as follows: under setting [1], 152 % of control; under setting [2], 198 % of control; (dose: 400.0 mg/kg/injection, schedule: Q01DX010 (sc), vehicle: saline) 260 % of control; (dose: 800.0 mg/kg/injection, schedule: Q01DX010 (sc), vehicle: saline) 67 % of control.

With `C[n+]1c2cc(N)ccc2cc2ccc(N)cc21`, the T/C by setting is: (dose: 1.56 mg/kg/injection, schedule: Q01DX010 (sc), vehicle: saline) 72 % of control; (dose: 3.13 mg/kg/injection, schedule: Q01DX010 (sc), vehicle: saline) 49 % of control; (dose: 6.25 mg/kg/injection, schedule: Q01DX010 (sc), vehicle: saline) 88 % of control.

With `CC(=O)OCC1OC(OC2=C(CC=C(C)C)C(=O)c3ccccc3C2=O)C(OC(C)=O)C(OC(C)=O)C1OC(C)=O` (configuration not stated), the T/C reads like this: (dose: 100.0 mg/kg/injection, schedule: Q04DX004 (sc), vehicle: Klucel (hydroxypropylcellulose) (HPC)) 159 % of control; (dose: 200.0 mg/kg/injection, schedule: Q04DX004 (sc), vehicle: Klucel (hydroxypropylcellulose) (HPC)) 105 % of control.

On to `CCOC(=O)CNC(=O)Sc1ccc(C(C)(C)C)cc1`, for which the T/C (dose: 300.0 mg/kg/injection, schedule: Q04DX003 (sc), vehicle: Klucel (hydroxypropylcellulose) (HPC)) was 98 % of control; the T/C (dose: 600.0 mg/kg/injection, schedule: Q04DX003 (sc), vehicle: Klucel (hydroxypropylcellulose) (HPC)) was 113 % of control; the T/C (dose: 1200.0 mg/kg/injection, schedule: Q04DX003 (sc), vehicle: Klucel (hydroxypropylcellulose) (HPC)) is 44 % of control; the T/C (dose: 2400.0 mg/kg/injection, schedule: Q04DX003 (sc), vehicle: Klucel (hydroxypropylcellulose) (HPC)) is 103 % of control.

`CCN(CC)c1ccc2cc(-c3nc4ccccc4n3C)c(=O)oc2c1`: the T/C runs as follows: under setting [3], 82 % of control; under setting [4], 67 % of control; under setting [5], 88 % of control.

On to `CN1CCN(c2ccc3nc(-c4ccc5nc(-c6ccc(O)cc6)[nH]c5c4)[nH]c3c2)CC1`, for which the T/C runs as follows: (dose: 100.0 mg/kg/injection, schedule: Q04DX004 (sc), vehicle: saline) 35 % of control; (dose: 200.0 mg/kg/injection, schedule: Q04DX004 (sc), vehicle: saline) 61 % of control; (dose: 800.0 mg/kg/injection, schedule: Q04DX004 (sc), vehicle: saline) 56 % of control.

`COc1ccc(C(=O)c2no[n+]([O-])c2C(=O)c2ccc(OC)cc2)cc1`: the T/C (dose: 200.0 mg/kg/injection, schedule: Q04DX004 (sc), vehicle: saline with Tween-80) is 182 % of control; the T/C (dose: 400.0 mg/kg/injection, schedule: Q04DX004 (sc), vehicle: saline with Tween-80) was 117 % of control; the T/C (dose: 800.0 mg/kg/injection, schedule: Q04DX004 (sc), vehicle: saline with Tween-80) is 71 % of control; the T/C (dose: 1600.0 mg/kg/injection, schedule: Q04DX004 (sc), vehicle: saline with Tween-80) is 83 % of control.

For the molecule `O=S(=O)(CCl)OCCCl`, the T/C is 163 % of control (dose: 50.0 mg/kg/injection, schedule: Q04DX004 (sc), vehicle: saline with Tween-80) and 105 % of control (dose: 100.0 mg/kg/injection, schedule: Q04DX004 (sc), vehicle: saline with Tween-80).

As to `COC(=O)C[C@](O)(CCCC(C)(C)O)C(=O)O[C@@H]1C(OC)=C[C@]23CCCN2CCc2cc4c(cc2[C@H]13)OCO4`, under “dose: 0.5 mg/kg/injection, schedule: Q01DX010 (sc), vehicle: saline”, the T/C was 41 % of control.

`COC(=O)C12OCC34C(CC5C(C)C6=CC(=O)OC6=CC5(C)C3C(O)C1O)OC(=O)C(OC(C)=O)C24` (configuration not stated): the T/C is 115 % of control (dose: 1.25 mg/kg/injection, schedule: Q04DX004 (sc), vehicle: saline + alcohol); 171 % of control (dose: 5.0 mg/kg/injection, schedule: Q04DX004 (sc), vehicle: saline + alcohol); 165 % of control (dose: 10.0 mg/kg/injection, schedule: Q04DX004 (sc), vehicle: saline + alcohol).

`C=Cc1cnc([N+](=O)[O-])n1C`: the T/C runs as follows: under setting [4], 110 % of control; under setting [5], 108 % of control.

`COc1ccc2nc3cc(Cl)ccc3c(NCCNCCNCCNc3c4ccc(Cl)cc4nc4ccc(OC)cc34)c2c1`: the T/C is 116 % of control (dose: 100.0 mg/kg/injection, schedule: Q01DX010 (sc), vehicle: saline with Tween-80); 124 % of control (dose: 400.0 mg/kg/injection, schedule: Q01DX010 (sc), vehicle: saline with Tween-80); 93 % of control (dose: 800.0 mg/kg/injection, schedule: Q01DX010 (sc), vehicle: saline with Tween-80).

For `Cc1cn(C2CC3[O][Sn]([c]4ccccc4)([c]4ccccc4)[O]CC3O2)c(=O)[nH]c1=O` (configuration not stated), the T/C runs as follows: (dose: 25.0 mg/kg/injection, schedule: Q01DX010 (sc), vehicle: saline) 60 % of control; under setting [6], 60 % of control; under setting [1], 79 % of control; under setting [2], 55 % of control; (dose: 600.0 mg/kg/injection, schedule: Q04DX004 (sc), vehicle: saline) 94 % of control; (dose: 1200.0 mg/kg/injection, schedule: Q04DX004 (sc), vehicle: saline) 95 % of control. Further, the T/C (dose: 2400.0 mg/kg/injection, schedule: Q04DX004 (sc), vehicle: saline) is 94 % of control.

For the molecule `Nc1nc(=S)c2ncn(C3CC(O)C(CO)O3)c2[nH]1` (configuration not stated), the T/C is, setting by setting: (dose: 1.8 mg/kg/injection, schedule: Q04DX004 (sc), vehicle: saline with Tween-80) 119 % of control; (dose: 3.75 mg/kg/injection, schedule: Q04DX004 (sc), vehicle: saline with Tween-80) 105 % of control; (dose: 7.5 mg/kg/injection, schedule: Q04DX004 (sc), vehicle: saline with Tween-80) 107 % of control; (dose: 100.0 mg/kg/injection, schedule: Q01DX010 (sc), vehicle: Klucel (hydroxypropylcellulose) (HPC)) 114 % of control.

Turning to `COc1cc(Cl)ccc1C`, the T/C is, setting by setting: (dose: 300.0 mg/kg/injection, schedule: Q04DX004 (sc), vehicle: saline with Tween-80) 64 % of control; (dose: 600.0 mg/kg/injection, schedule: Q04DX004 (sc), vehicle: saline with Tween-80) 90 % of control; (dose: 1200.0 mg/kg/injection, schedule: Q04DX004 (sc), vehicle: saline with Tween-80) 76 % of control; (dose: 2400.0 mg/kg/injection, schedule: Q04DX004 (sc), vehicle: saline with Tween-80) 84 % of control.

Consider `COc1cc(NCCCCCCCNC(C)C)c2nccc(C)c2c1`, for which the T/C reads like this: (dose: 18.7 mg/kg/injection, schedule: Q04DX004 (sc), vehicle: saline) 56 % of control; (dose: 37.5 mg/kg/injection, schedule: Q04DX004 (sc), vehicle: saline) 85 % of control; (dose: 75.0 mg/kg/injection, schedule: Q04DX004 (sc), vehicle: saline) 71 % of control.

On to `C[Si](C)(C)O/C=C1/CCOC1=O`, for which the T/C is, setting by setting: (dose: 100.0 mg/kg/injection, schedule: Q04DX004 (sc), vehicle: suspension in saline) 98 % of control; (dose: 200.0 mg/kg/injection, schedule: Q04DX004 (sc), vehicle: suspension in saline) 93 % of control; (dose: 800.0 mg/kg/injection, schedule: Q04DX004 (sc), vehicle: suspension in saline) 107 % of control.

`COc1cc(C)c2c(c1C=O)Oc1c(c(C)c(O)c3c1C(O)OC3=O)OC2=O` (configuration not stated): the T/C is 68 % of control under setting [6] and 50 % of control under setting [2].

For `O=C(O)CC(NC(=O)CP(=O)(O)O)C(=O)O.[NH-]C1CCCCC1[NH-].[Pt+2]` (configuration not stated), the T/C is, setting by setting: (dose: 6.25 mg/kg/injection, schedule: Q04DX004 (sc), vehicle: dextrose) 97 % of control; (dose: 12.5 mg/kg/injection, schedule: Q04DX004 (sc), vehicle: dextrose) 25 % of control; (dose: 25.0 mg/kg/injection, schedule: Q04DX004 (sc), vehicle: dextrose) 35 % of control.

Turning to `Cc1cc(N/N=C/c2ccccn2)nc2ccccc12`, the T/C is 101 % of control (dose: 37.5 mg/kg/injection, schedule: Q04DX004 (sc), vehicle: Klucel (hydroxypropylcellulose) (HPC)); 107 % of control under setting [3]; 123 % of control under setting [4]; 90 % of control under setting [5].

`c1ccc([C@H]2CN3CCSC3=N2)cc1`: the T/C (dose: 15.0 mg/kg/injection, schedule: Q04DX004 (sc), vehicle: saline) is 152 % of control and the T/C (dose: 30.0 mg/kg/injection, schedule: Q04DX004 (sc), vehicle: saline) was 114 % of control.

For the molecule `CN(C)CCN1C(=O)c2cccc3cc([N+](=O)[O-])cc(c23)C1=O`, for the setting “dose: 18.0 mg/kg/injection, schedule: Q04DX004 (sc), vehicle: saline with Tween-80”, the T/C was 95 % of control.
